ChEMBL document CHEMBL3588755, “hERG Channel Inhibitory Daphnane Diterpenoid Orthoesters and Polycephalones A and B with Unprecedented Skeletons from Gnidia polycephala” (J Nat Prod, 2015)

Legend:
hERG (KCNH2) = hERG (KCNH2) (Homo sapiens, UniProt Q12809); experiment: Inhibition of human ERG expressed in Xenopus laevis oocytes at 100 uM incubated for 3 mins at holding potential of -100 mV followed by depolarization to +20 mV and repolarization to -50 mV by two-microelectrode voltage clamp assay; assay type: cell-based; details: Xenopus laevis oocytes expressing human ERG
[1] = Retention time of the compound by HPLC method; assay type: physicochemical

hERG (KCNH2), sequence (Q12809 whole entry): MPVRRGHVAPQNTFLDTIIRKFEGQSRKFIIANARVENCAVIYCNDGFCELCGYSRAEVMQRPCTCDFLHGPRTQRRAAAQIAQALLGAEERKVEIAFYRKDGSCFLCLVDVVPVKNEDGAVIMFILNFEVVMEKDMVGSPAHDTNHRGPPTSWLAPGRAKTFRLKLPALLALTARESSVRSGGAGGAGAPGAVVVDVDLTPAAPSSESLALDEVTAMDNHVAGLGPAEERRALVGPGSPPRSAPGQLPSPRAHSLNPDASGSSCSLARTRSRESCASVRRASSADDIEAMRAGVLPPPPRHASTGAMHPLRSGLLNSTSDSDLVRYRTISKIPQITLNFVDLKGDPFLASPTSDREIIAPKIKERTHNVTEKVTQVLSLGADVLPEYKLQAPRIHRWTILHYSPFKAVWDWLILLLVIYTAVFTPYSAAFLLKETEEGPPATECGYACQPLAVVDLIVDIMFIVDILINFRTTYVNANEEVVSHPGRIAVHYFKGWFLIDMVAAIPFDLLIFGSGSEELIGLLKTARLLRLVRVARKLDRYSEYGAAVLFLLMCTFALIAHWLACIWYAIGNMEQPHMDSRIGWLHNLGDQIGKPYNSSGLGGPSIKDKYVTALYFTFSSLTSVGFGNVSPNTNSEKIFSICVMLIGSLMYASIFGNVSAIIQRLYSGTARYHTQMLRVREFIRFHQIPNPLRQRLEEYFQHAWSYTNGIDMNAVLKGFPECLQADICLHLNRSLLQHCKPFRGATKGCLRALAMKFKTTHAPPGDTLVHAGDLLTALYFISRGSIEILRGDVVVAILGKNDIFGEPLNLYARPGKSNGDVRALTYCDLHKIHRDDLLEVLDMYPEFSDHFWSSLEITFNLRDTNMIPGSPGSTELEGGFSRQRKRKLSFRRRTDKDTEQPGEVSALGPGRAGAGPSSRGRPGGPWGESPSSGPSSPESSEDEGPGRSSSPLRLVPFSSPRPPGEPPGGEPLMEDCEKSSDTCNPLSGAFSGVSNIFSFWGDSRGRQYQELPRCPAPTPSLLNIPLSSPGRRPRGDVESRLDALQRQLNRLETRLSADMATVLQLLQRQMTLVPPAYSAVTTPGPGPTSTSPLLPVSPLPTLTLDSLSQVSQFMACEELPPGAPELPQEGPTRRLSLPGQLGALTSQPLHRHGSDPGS

| SMILES | inhibition at 0.05 h, 100 µM (hERG (KCNH2)) | Retention_time [1] |
| --- | --- | --- |
| C=C(C)[C@@]12C[C@@H](C)[C@@]34OC(/C=C\C=C/CCCCC)(O[C@@H]1[C@@H]3[C@@H]1O[C@]1(CO)[C@@H](O)[C@]1(O)C(=O)C(C)=C[C@H]14)O2 | 55.4% | 18.9 min |
| C=C(C)[C@]12OC3(/C=C\C=C/CCCCC)O[C@@H]1[C@@H]1[C@@H]4O[C@]4(CO)[C@@H](O)[C@]4(O)C(=O)C(C)=C[C@H]4[C@@]1(O3)[C@H](C)[C@H]2OC(=O)c1ccccc1 | 42.5% | 23.5 min |
| C=C(C)[C@]12OC3(/C=C/C=C/CCCCC)O[C@@H]1[C@@H]1[C@@H]4O[C@]4(CO)[C@@H](O)[C@]4(O)C(=O)C(C)=C[C@H]4[C@@]1(O3)[C@H](C)[C@H]2OC(=O)c1ccccc1 | 51.3% | 25.5 min |
